Consider three compounds from publication PMC6753210, “^18F-Labeled Cyclized α-Melanocyte-Stimulating Hormone Derivatives for Imaging Human Melanoma Xenograft with Positron Emission Tomography” (Scientific Reports, 2019).

For orientation: Ki means the dissociation constant of the complex between target and ligand, obtained from inhibition or displacement. As usually defined, the tissue uptake is the share of the injected amount in each gram of the tissue.

For data set [1], the target named is T1, MC1R (Mus musculus, UniProt Q01727).
T1 construct: endogenous in cells; host or cells: B16-F10 mouse melanoma cells
T1 sequence (Q01727 whole entry): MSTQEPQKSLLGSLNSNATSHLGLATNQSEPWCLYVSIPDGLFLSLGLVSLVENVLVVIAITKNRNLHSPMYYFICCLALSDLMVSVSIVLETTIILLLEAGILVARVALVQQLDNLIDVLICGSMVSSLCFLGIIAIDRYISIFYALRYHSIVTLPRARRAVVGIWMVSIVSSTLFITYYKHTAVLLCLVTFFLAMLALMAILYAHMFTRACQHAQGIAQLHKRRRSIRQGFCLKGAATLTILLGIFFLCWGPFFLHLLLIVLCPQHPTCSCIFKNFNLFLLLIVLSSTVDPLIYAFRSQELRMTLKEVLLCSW
Briefly: In vitro competition binding assay with [^125I]NDP-αMSH on B16-F10 cells. Conditions: 0.1 nM [^125I]NDP-αMSH, 25 °C, 1 h, n = 3. As to the method: Receptor binding affinity of CCZ01096 was assessed using previously published procedures. Briefly, approximately 500,000 B16-F10 cells/well were seeded onto 24 well poly-D-lysine plates overnight. The cells were washed with PBS and the growth media was replaced by the reaction buffer described above. Increasing concentrations of non-radioactive CCZ01096 (0.5 pM to 5 μM) along with 0.1 nM of [^125I]NDP-αMSH were also added. The reaction mixture was incubated at 25 °C with moderate agitation for 1 h. Cells were washed with ice-cold PBS, harvested, and measured for radioactivity on a WIZARD 2480 gamma counter.

Data set [2] deals with SK-MEL-1 human melanoma xenografts. Briefly: Biodistribution in NSG mice bearing human SK-MEL-1 melanoma xenografts. The data set is classed as in vivo, mouse. Conditions: 1 h p.i. How it is done:
(§1) All animal experiments were conducted in according to the guidelines established by Canadian Council on Animal Care and approved by Animal Ethics Committee of the University of British Columbia. Male C57BL/6 J and immunodeficient NSG mice were obtained from an in-house breeding colony at the BC Cancer Research Centre. For tumor implantation, mice were anesthetized by inhalation with 2% isoflurane, 1 × 10^6 B16-F10 and 5 × 10^6 SK-MEL-1 cells were inoculated subcutaneously on the right dorsal flank of C57BL/6J and NSG mice, respectively. Mice were used for imaging or biodistribution studies when the tumors reached 6–8 mm in diameter.
(§2) μPET/μCT imaging and biodistribution experiments were performed on a μPET/μCT scanner (Inveon, Siemens) using previously published procedures. Briefly, tumor-bearing mice were injected with approximately 3.0–5.0 MBq (for imaging) or <1.5 MBq (for biodistribution) of radiolabeled peptides via tail vein under sedation (2% isoflurane inhalation). For [^18F]FDG imaging and biodistribution, mice underwent fasting overnight prior to the experiments. Imaging studies were performed in duplicate or triplicate. […] After injection, mice were allowed to recover and roam freely in their cages. At 1 or 2 h p.i., mice were anesthetized again and positioned in the scanner. A baseline CT scan was obtained for localization and attenuation correction, followed by a 10–15 min static μPET scan. For biodistribution studies, mice were euthanized by CO2 inhalation, blood was withdrawn promptly, and the tissues of interest were harvested, rinsed, and blotted dry. All tissues were weighed and the radioactivity of the collected samples was measured using a WIZARD 2480 gamma counter.
(In general: In xenograft studies the graft and the host belong to different species.)

Experiment in data set [3]: as above
The class given is in vivo, mouse. Particulars: male, NSG, mouse, SK-MEL-1 tumor, iv, total radioactivity, 1 h p.i., n = 4. As to the method:
as §1, §2

Where [4] appears, read: NSG mice, SK-MEL-1 xenograft, unblocked, n = 5 ([^18F]FDG n = 4).

Each structure is given as a SMILES string.

`CCCC[C@H](NC(=O)CN1CCC(NC(=O)C(CCCCNC(=O)Cn2cc(C[N+](C)(C)C[B-](F)(F)F)nn2)NC(=O)Cn2cc(C[N+](C)(C)C[B-](F)(F)F)nn2)CC1)C(=O)N[C@H]1CC(=O)NCCCC[C@@H](C(N)=O)NC(=O)[C@H](Cc2c[nH]c3ccccc23)NC(=O)[C@H](CCCNC(=N)N)NC(=O)[C@@H](Cc2ccccc2)NC(=O)[C@H](Cc2c[nH]cn2)NC1=O` (stereo partly drawn) [CCZ01096] registered a Ki in data set [1] of 0.51 ± 0.08 nM.
For `CCCC[C@H](NC(=O)CN1CCC(NC(=O)CN2CCN(CC(=O)O)CCN(CC(=O)O)CCN(CC(=O)O)CC2)CC1)C(=O)N[C@H]1CC(=O)NCCCC[C@@H](C(N)=O)NC(=O)[C@H](Cc2c[nH]c3ccccc23)NC(=O)[C@H](CCCNC(=N)N)NC(=O)[C@@H](Cc2ccccc2)NC(=O)[C@H](Cc2c[nH]cn2)NC1=O` [[^68Ga]Ga-CCZ01048, metal not drawn], the “Reduction of tumor uptake” value worked out at 57% in data set [2] (co-injection of 20 pmol ^natGa-CCZ01048 vs none), 79% in data set [2] (co-injection of 50 pmol ^natGa-CCZ01048 vs none) and 83% in data set [2] (co-injection of 100 pmol ^natGa-CCZ01048 vs none). Besides, the tissue uptake at 1 h in data set [3] (5.9 pmol, without co-injection, total injected peptide mass 5.9 ± 0.90 pmol) came to 6.15 ± 0.22 %ID/g; in data set [3] (co-injection of 20 pmol ^natGa-CCZ01048, total peptide mass 27.5 ± 0.6 pmol), 2.66 ± 0.22 %ID/g; in data set [3] (co-injection of 50 pmol ^natGa-CCZ01048, total peptide mass 57.3 ± 1.0 pmol) it was 1.31 ± 0.13 %ID/g; in data set [3] (co-injection of 100 pmol ^natGa-CCZ01048, total peptide mass 109 ± 1.0 pmol), 1.04 ± 0.17 %ID/g.
Consider `OC[C@H]1OC(O)[C@H]([18F])[C@@H](O)[C@@H]1O` (stereo partly drawn) [[^18F]FDG, 2-[^18F]fluorodeoxyglucose], for which, in data set [2] (setting [4]), the Adrenal glands uptake was 2.05±0.28 %ID/g, the Blood uptake turned out to be 0.95±0.27 %ID/g, the Bone uptake worked out at 0.86 ± 0.35 %ID/g and the Brain uptake was 9.54 ± 1.69 %ID/g. Also, in data set [2] (setting [4]), the Fat uptake was 0.86±0.21 %ID/g, the Heart uptake turned out to be 8.80 ± 4.42 %ID/g, the Intestines uptake was 3.95 ± 0.16 %ID/g and the Kidneys uptake was found to be 3.01±0.28 %ID/g. For the same compound, in data set [2] (setting [4]), the Liver uptake is 1.48±0.14 %ID/g, the Lungs uptake is given as 3.42±0.40 %ID/g, the Muscle uptake came out at 1.75 ± 0.54 %ID/g and the Pancreas uptake came to 1.41±0.20 %ID/g. For the same compound, in data set [2] (setting [4]), the Seminal glands uptake is given as 4.63 ± 0.57 %ID/g, the Spleen uptake was 3.59±0.68 %ID/g, the Stomach uptake is recorded as 1.00±0.11 %ID/g and the Testes uptake was determined as 1.15±1.03 %ID/g. For the same compound, in data set [2] (setting [4]), the Thyroid uptake is 2.72±0.13 %ID/g, the Tumor/Blood ratio stood at 7.64±2.06, the Tumor/Bone ratio is listed as 8.83±2.62 and the Tumor/Kidneys ratio is 2.30±0.04. Further, in data set [2] (setting [4]), the Tumor/Muscle ratio turned out to be 4.22±1.30. In data set [2] (NSG mice, SK-MEL-1 xenograft, tail vein, unblocked, gamma counter, n = 5 ([^18F]FDG n = 4)), this compound came in with an SK-MEL-1 tumor uptake of 6.91 ± 0.66 %ID/g.
